“Also recorded” adds a separate entry of the source. Like-named read-outs stand apart in the source and are kept apart here.
Tests used:
[1] = tested on: CD62L^low effector CD8^+ T cells (P14 cells); type: in vivo, mice
[2] = tested on: vaccinia virus-specific CD8^+ T cells; parameters: species or system Rhesus macaques (Macaca mulatta); conditions: rhesus monkey, in vivo
[3] = tested on: GP33 epitope-specific CD8^+ T cells; type: in vivo, mice
[4] = tested on: GP33 epitope-specific memory CD8^+ T cells (P14 cells); assay: Rapamycin during T cell maintenance phase, adoptively transferred CFSE-labeled memory P14 cells; type: in vivo, mice
[5] = tested on: LCMV-specific CD8^+ T cells (P14 cells); parameters: species or system mice; conditions: mouse, in vivo
[6] = tested on: antigen-specific CD8^+ T cells; parameters: species or system mice; conditions: mouse, in vivo
[7] = tested on: virus-specific CD8^+ T cells; parameters: species or system mice; conditions: mouse, in vivo
[8] = tested on: DbGP33 tetramer-positive P14 cells; type: in vivo, mice
P14 memory T cells = type: in vivo; conditions: VVGP33 challenge, vs memory cells of untreated mice
[9] = tested on: DbGP33 tetramer-positive CD8^+ T cells; assay: rAd5-LCMV-GP vaccination with low dose rapamycin; type: in vivo, mice
Procedure: Mice were vaccinated with rAd5-LCMV-GP (1×10^10 viral particles) by intramuscular injection on Day 0 and either left untreated or treated with rapamycin at a dose of 0.075 mg/kg from Day −1 to Day 34 (FIG. 19A). The number of DbGP33 tetramer-positive CD8^+ T cells in the spleen of treated and untreated mice was determined by FACS on Day 35 post-vaccination. […] The phenotype of virus-specific CD8^+ T cells was also evaluated by FACS (FIG. 19C).

[10] = rhesus macaques, approximately 10-50 μg/kg/day intramuscularly
[11] = tested on: virus-specific CD8^+ T cells; parameters: species or system mice; conditions: mouse, in vivo; remark: listed apart in the source
[12] = tested on: virus-specific memory CD4^+ T cells; parameters: species or system mice; conditions: mouse, in vivo
P14 cells = type: in vivo, mice
[13] = tested on: FKBP12 RNAi retrovirus transduced P14 cells; parameters: species or system mice; conditions: mouse, in vivo
P14 memory cells = type: in vivo, mice
[14] = mice
[15] = tested on: vaccinia virus (VV) that expresses the GP33 epitope (VVgp33); parameters: species or system mice; conditions: mouse, in vivo
[16] = tested on: virus-specific CD8^+ T cells; parameters: species or system mice; conditions: mouse, in vivo; remark: listed apart in the source
[17] = tested on: virus-specific CD8^+ T cells; parameters: species or system mice; conditions: mouse, in vivo; remark: listed apart in the source
LCMV = tested on: LCMV; parameters: species or system mice; conditions: mouse, in vivo
FKBP12 = type: cell-based, mice; conditions: GFP^+ P14 cells, Day 7 or 8 post-infection
raptor = type: cell-based, mice; conditions: GFP^+ P14 cells, Day 7 or 8 post-infection
[18] = tested on: LCMV-specific P14 transgenic CD8^+ T cells; parameters: species or system mice; conditions: mouse, in vivo
[19] = Day 31 post-infection, spleen, relative to control

With `CO[C@H]1C[C@@H]2CC[C@@H](C)[C@@](O)(O2)C(=O)C(=O)N2CCCC[C@H]2C(=O)O[C@H]([C@H](C)C[C@@H]2CC[C@@H](O)[C@H](OC)C2)CC(=O)[C@H](C)/C=C(\C)[C@@H](O)[C@@H](OC)C(=O)[C@H](C)C[C@H](C)/C=C/C=C/C=C/1C` [rapamycin, (3S,6R,7E,9R,10R,12R,14S,15E,17E,19E,21S,23S,26R,27R,34aS)-9,10,12,13,14,21,22,23,24,25,26,27,32,33,34,34a-hexadecahydro-9,27-dihydroxy-3-[(1R)-2-[(1S,3R,4R)-4-hydroxy-3-methoxycyclohexyl]-1-methylethyl]-10,21-dimethoxy-6,8,12,14,20,26-hexamethyl-23,27-epoxy-3H-pyrido[2,1-c][1,4]-oxaazacyclohentriacontine-1,5,11,28,29(4H,6H,31H)-pentone] the “CD62L re-expression on transferred virus-specific CD8^+ T cells” value ([1]; 0.6 mg/kg daily after transfer, blood/PBMC, vs control mice) was “quickly re-expressed CD62L; also recorded: re-expressed CD62L much faster”, the “absolute number of CD62L^High virus-specific CD8^+ T cells in spleen” value ([1]; 0.6 mg/kg daily, Day 26 post-transfer, vs untreated) was “greater” and the “cell division during CD62L re-expression (CFSE)” value ([1]; effector to memory transition phase after transfer) was “no or minimal cell division; also recorded: no cell division”. For the same molecule, the T cell contraction [2] was “slower”, the “number of memory CD8^+ T cells maintained” value [2] was “higher number” and the “phenotype of antigen-specific CD8^+ T cells from spleen” value ([3]; 34 days post-immunization) was “markers of high quality memory T cells (CD127^High, CD62L^High, KLRG-1^Low, Bcl-2^High)”. For the same molecule, the “memory T cell numbers relative to control” value ([3]; 165 days after stopping the drug treatment) was 10 fold, the “number of antigen-specific CD8^+ T cells maintained” value ([3]; PBMC and spleen (Day 34), vs control) was “higher number” and the “expansion of GP33 epitope-specific CD8^+ T cells after VLP immunization” value ([3]; low dose rapamycin from Day -1, PBMC, vs control) was “expanded similarly”. The “magnitude and quality of VLP-induced memory CD8^+ T cells” value ([3]; mouse, in vivo) was “enhanced both the magnitude and the quality”, the “number of virus-specific CD8^+ T cells in the spleen” value ([4]; 0.6 mg/kg daily from Day -1, Day 42 post-transfer, vs untreated) was “decreased” and the “percentage of virus-specific CD8^+ T cells that divided more than twice (CFSE)” value ([4]; 0.6 mg/kg daily, Day 42 post-transfer, untreated 42.5%) was 17.8%. The “expression of CD127 and CD62L on LCMV-specific CD8^+ T cells” value [5] was “enhanced expression”, the “percentage of virus-specific CD8^+ T cells in PBMCs” value [5] was “greater” and the recall responses [5] was “enhanced”. For the same molecule, the “incorporation of BrdU by antigen-specific CD8^+ T cells” value [6] was “minimal incorporation”, the “Bcl-2 expression of virus-specific CD8^+ T cells in lymph node” value [7] was “higher than control” and the “cell surface markers of virus-specific CD8^+ T cells in lymph node” value [7] was “no significant change”. For the same molecule, the “number of memory cells generated” value [7] was “not affected”, the “number of virus-specific CD8^+ T cells in the spleen” value [7] was “did not reduce” and the “number of virus-specific CD8^+ T cells with phenotype of highly functional memory cells” value [7] was “significantly higher number”. For the same molecule, the “phenotype of GP33, GP276 and NP396 epitope-specific CD8^+ T cells in spleen” value [7] was “high quality memory T cells (CD127^High, CD62L^High, KLRG-1^Low, CD27^High, Bcl-2^High)”, the “absolute number of DbGP33 tetramer-positive P14 cells in spleen” value ([8]; Day 5 post-challenge, vs untreated) was “greater” and the “recall responses of memory CD8^+ T cells differentiated with rapamycin” value ([8]; rapamycin 25 days, VVGP33 challenge Day 28 post-transfer) was “better”. The “percentage of DbGP33 tetramer-positive P14 cells in the spleen” value ([8]; rapamycin for 25 days, VVgp33 challenge Day 28, Day 5 post-challenge, untreated 1.69%) was 4.93%, the “recall responses of memory CD8^+ T cells generated with rapamycin” value (P14 memory T cells) was “superior” and the “number of virus-specific (DbGP33 tetramer-positive) CD8^+ T cells in spleen” value ([9]; 0.075 mg/kg Day -1 to Day 34, Day 35 post-vaccination) was “significantly increased”. The “phenotype of virus-specific CD8^+ T cells” value ([9]; 0.075 mg/kg Day -1 to Day 34, spleen Day 35) was “markers of high quality memory T cells (CD127^High, CD62L^High, KLRG-1^Low, Bcl-2^High)”, the “Blood levels of rapamycin” value [10] was 5 to 15 ng/mL and the “LCMV-specific CD8^+ T cell response” value [11] was “enhanced”. For the same molecule, the “contraction of the T cell response” value [11] was “minimal contraction”, the “expression of CD127, CD62L, and Bcl-2 on memory CD8^+ T cells” value [11] was “higher levels” and the “frequency of KLRG-1^Low memory CD8^+ T cells” value [11] was “higher frequency”. The “number of GP33 epitope-specific CD8^+ T cells in PBMCs” value [11] was “higher number”, the “number of epitope-specific CD8^+ T cells (GP33, GP276, NP396, NP205, GP118) in spleen” value [11] was “enhanced the number” and the “numbers of antigen-specific CD8^+ T cells in lymphoid and non-lymphoid tissues” value [11] was “Increased numbers”. For the same molecule, the “phenotype of virus-specific CD8^+ T cells” value [11] was “CD127^High CD62L^High KLRG-1^Low Bcl-2^High phenotype”, the “number of IFN-γ^+ CD4^+ T cells upon GP61 peptide stimulation” value [12] was “higher number of IFN-γ^+ cells” and the “number of virus-specific CD8^+ T cells (P14) in spleen” value (P14 cells; 0.6 mg/kg daily from Day 8 after VV infection, Day 31, vs control) was “similar”. For the same molecule, the “expression of CD27 and Bcl-2 on virus-specific CD8^+ T cells” value (P14 cells; [19]) was “higher”, the “expression of KLRG-1 on virus-specific CD8^+ T cells” value (P14 cells; [19]) was “lower” and the “CD127 and CD62L expression on virus-specific CD8^+ T cells” value (P14 cells; Day 31 post-infection, spleen, vs control) was “no significant difference”. The “effect of rapamycin treatment on phenotype / memory differentiation of FKBP12 knockdown P14 cells” value [13] was “diminished; also recorded: almost disappeared”, the “expression of memory markers (CD127, CD62L, Bcl2) on FKBP12 knockdown P14 cells under rapamycin” value [13] was “did not show increased expression” and the “percentage of P14 memory cells that divided more than twice in spleen” value (P14 memory cells; 30 days post-transfer, control 36.8%) was 46.1%. The “percentage of divided memory T cells in PBMC” value (P14 memory cells; memory cells from rapamycin-treated mice (Example 1), up to 30 days post-transfer) was “increased”, the “homeostatic proliferation of memory CD8^+ T cells generated with rapamycin” value (P14 memory cells; rapamycin Day -1 to Day 33, 30 days post transfer, vs memory cells of untreated mice) was “superior” and the blood concentration ([14]; 0.6 mg/kg (600 μg/kg) intraperitoneally daily) was 40 to 100 ng/mL. For the same molecule, the blood concentration ([14]; low dose 0.075 mg/kg (75 μg/kg) daily) was 5 to 20 ng/mL, the “protective immunity (viral control)” value [15] was “better” and the “viral titer in the ovaries” value [15] was “reduction in viral titer”. For the same molecule, the “Bcl-2 expression in Day 8 effector CD8^+ T cells” value [16] was “higher levels”, the “death of effector CD8^+ T cells during contraction phase” value [16] was “only minimal death” and the “phenotype of memory CD8^+ T cells” value [16] was “similar”. The “proportion of CD127^High KLRG-1^Low cells among Day 8 effector CD8^+ T cells” value [16] was “higher proportion”, the “percentage of virus-specific CD8^+ T cells (DbGP33 tetramer) in PBMCs” value [17] was 2.49% and the “LCMV titer relative to untreated mice” value (LCMV) was “significantly increased”.
In the case of “FKBP12 shRNA (guide GCCAAACTGATAATCTCCTCA)”, the “Expression of FKBP12 protein” value (FKBP12) is reported as “significantly reduced”.
With “raptor shRNA (guide GCCCGAGTCTGTGAATGTAAT)” the “Expression of raptor protein” value (raptor) was “significantly reduced”, the “expression of phenotypic markers on antigen-specific T cells” value [18] was “identical to what was observed upon knockdown of mTOR” and the “virus-specific memory T cell phenotype in spleen” value [18] was “high quality memory T cell phenotype (CD127^High, CD62L^high KLRG-1^Low)”.
